Where a name gives a salt, the structure may show the parent alone.
Test system: hDMFa myofibroblast cells

With `C[C@H](CCC(=O)O)[C@H]1CC[C@H]2[C@@H]3[C@@H](O)C[C@@H]4C[C@H](O)CC[C@]4(C)[C@H]3CC[C@]12C` [Cmpd 988, Ursodeoxycholic Acid] as the compound, how does the “Compound Myofibroblast Cytotoxicity Activity” value read?
The value was “+”.

For `O=c1ccn([C@@H]2O[C@H](COP(=O)([O-])OP(=O)([O-])OP(=O)([O-])O)[C@@H](O)[C@H]2O)c(=O)[nH]1.[Na+].[Na+].[Na+]` [Cmpd 990, UTP, Trisodium Salt], which “Compound Myofibroblast Cytotoxicity Activity” value is on record?
The value was “++”.

`CCCC(CCC)C(=O)O` [Cmpd 993, Valproic acid] was tested. Which “Compound Myofibroblast Cytotoxicity Activity” value did it give?
The value was “+++”.

Which “Compound Myofibroblast Cytotoxicity Activity” value does the source give for `COc1cc2/c(=N/c3ccc(Br)cc3F)nc[nH]c2cc1OCC1CCN(C)CC1` [Cmpd 994, Vandetanib (ZD6474)] here?
The value was “++++”.

`COc1cc(C(=O)O)ccc1O` [Cmpd 995, Vanillic acid] was tested. Which “Compound Myofibroblast Cytotoxicity Activity” value did it give?
Its value is “++”.

Which “Compound Myofibroblast Cytotoxicity Activity” value does the source give for `CCCc1nc(C)c2c(=O)[nH]c(-c3cc(S(=O)(=O)N4CCN(CC)CC4)ccc3OCC)nn12` [Cmpd 996, Vardenafil] here?
The value was “++++”.

How did the “Compound Myofibroblast Cytotoxicity Activity” value turn out when `COc1ccc(C(CN(C)C)C2(O)CCCCC2)cc1` (stereo not drawn) [Cmpd 998, Venlafaxine] was run?
Its value is “++”.

`C=Cc1c(C)c2cc3nc(cc4[nH]c(cc5nc(cc1[nH]2)C(C)=C5CCC(=O)O)c(CCC(=O)OC)c4C)[C@@]1(C)C3=CC=C(C(=O)OC)[C@H]1C(=O)OC` [Cmpd 999, Verteporfin] was tested. Which “Compound Myofibroblast Cytotoxicity Activity” value did it give?
The value was “+++++”.

`OCc1cc([C@@H](O)CNCCCCCCOCCOCc2c(Cl)cccc2Cl)ccc1O` [Cmpd 1001, Vilanterol trifenatate] was tested. Which “Compound Myofibroblast Cytotoxicity Activity” value did it give?
The value was “+++”.

Which “Compound Myofibroblast Cytotoxicity Activity” value does the source give for `CC[C@]1(O)C[C@@H]2CN(CCc3c([nH]c4ccccc34)[C@@](C(=O)OC)(c3cc4c(cc3OC)N(C)[C@H]3[C@@](O)(C(=O)OC)[C@H](OC(C)=O)[C@]5(CC)C=CCN6CC[C@]43[C@@H]65)C2)C1` [Cmpd 1002, Vinblastine sulfate] here?
The value was “++”.

How did the “Compound Myofibroblast Cytotoxicity Activity” value turn out when `CC[C@]1(O)C[C@H]2CN(CCc3c([nH]c4ccccc34)[C@@](C(=O)OC)(c3cc4c(cc3OC)N(C=O)[C@H]3[C@@](O)(C(=O)OC)[C@H](OC(C)=O)[C@]5(CC)C=CCN6CC[C@]43[C@@H]65)C2)C1` [Cmpd 1004, Vincristine sulfate] was run?
Its value is “+++”.

With `CCC1=C[C@@H]2CN(C1)Cc1c([nH]c3ccccc13)[C@@](C(=O)OC)(c1cc3c(cc1OC)N(C)[C@H]1[C@@](O)(C(=O)OC)[C@H](OC(C)=O)[C@]4(CC)C=CCN5CC[C@]31[C@@H]54)C2` [Cmpd 1005, Vinorelbine] as the compound, how does the “Compound Myofibroblast Cytotoxicity Activity” value read?
The value was “++”.

Which “Compound Myofibroblast Cytotoxicity Activity” value does the source give for `CCOC(=O)C1=C[C@]2(CC)CCCN3CCc4c(n1c1ccccc41)[C@@H]32` [Cmpd 1006, Vinpocetine] here?
The value was “+++”.

How did the “Compound Myofibroblast Cytotoxicity Activity” value turn out when `C=C1CC[C@H](O)C/C1=C/C=C1\CCC[C@]2(C)[C@@H]([C@H](C)/C=C/[C@H](C)C(C)C)CC[C@@H]12` [Cmpd 1008, Vitamin D2 (Ergocalciferol)] was run?
The value was “+++”.

How did the “Compound Myofibroblast Cytotoxicity Activity” value turn out when `C=C1CC[C@H](O)C/C1=C/C=C1\CCC[C@]2(C)[C@@H]([C@H](C)CCCC(C)C)CC[C@@H]12` [Cmpd 1009, Vitamin D3] was run?
The value was “+++”.

For `CC1=C(C/C=C(\C)CCC[C@H](C)CCC[C@H](C)CCCC(C)C)C(=O)c2ccccc2C1=O` [Cmpd 1010, Vitamin K1], which “Compound Myofibroblast Cytotoxicity Activity” value is on record?
Its value is “++”.

`CC(C)(C)C#Cc1cc(N(C(=O)[C@H]2CC[C@H](C)CC2)[C@H]2CC[C@H](O)CC2)c(C(=O)O)s1` [Cmpd 1014, VX-222 (VCH-222,Lomibuvir)] was tested. Which “Compound Myofibroblast Cytotoxicity Activity” value did it give?
The value was “++”.

For `O=c1[nH]c(=O)c2[nH]cnc2[nH]1` [Cmpd 1020, xanthine], which “Compound Myofibroblast Cytotoxicity Activity” value is on record?
Its value is “++”.

For `COc1cc(C(=O)NS(=O)(=O)c2ccccc2C)ccc1Cc1cn(C)c2ccc(NC(=O)OC3CCCC3)cc12` [Cmpd 1023, Zafirlukast], which “Compound Myofibroblast Cytotoxicity Activity” value is on record?
The value was “+++++”.

With `Nc1ccn([C@H]2CC[C@@H](CO)O2)c(=O)n1` [Cmpd 1024, Zalcitabine] as the compound, how does the “Compound Myofibroblast Cytotoxicity Activity” value read?
The value was “++++”.

How did the “Compound Myofibroblast Cytotoxicity Activity” value turn out when `O=C1Cc2cc(CCN3CCN(c4nsc5ccccc45)CC3)c(Cl)cc2N1` [Cmpd 1029, Ziprasidone HCl] was run?
Its value is “++”.
